# Results reported in paper PMC11939955, “Enhancing Antimicrobial Peptides from Frog Skin: A Rational Approach” (Biomolecules, 2025).
# Where no end group is shown, it is not given here.
# What was measured:
# [1] = tested on: Varicellovirus suidalpha1; format: cell-based; conditions: hylin-Pul3 at 20 μg/mL (10.8 μM), dHP3-84 at 75 μg/mL (34.5 μM); Vero monolayers, 90 min adsorption then 72 h at 37 °C, plaque titer, duplicate
# Experimental: Antiviral activity assays were performed following a previously described protocol with slight modifications. The efficacy of the peptide compounds was assessed at different stages of the viral lifecycle, including adsorption, penetration, and intracellular replication. The hylin-Pul3 and dHP3-84 peptides were tested at non-cytotoxic concentrations of 20 μg/mL (10.8 μM) and 75 μg/mL (34.5 μM), respectively. Vero cell monolayers (African green monkey kidney cells) were cultured in 24-well plates and exposed to the peptide solutions along with serial 10-fold dilutions of Varicellovirus suidalpha1, formerly known as Herpes suis virus type 1 (HSV-1). The assays were performed in duplicate. […] The viral plaques that formed on the Vero cells were stained (1% crystal violet) and the viral titers were determined. The percentage viral inhibition was calculated by comparing the reduction in viral titer between the treatment and control groups. This was determined using the following formula: (2) % viral inhibition=100−A/B×100 where “A” represents the viral titer expressed in PFU/mL (Plaque-Forming Units per milliliter) obtained in the treated cultures and “B” is the viral titer expressed in PFU/mL obtained in the untreated cultures.
# Vero cells = format: cell-based, African green monkey; conditions: for CC50, concentration inducing 50% cell death in Vero cells / Cytotoxicity in Vero cells, CC50: 48 h
# Experimental: The cytotoxicity of hylin-Pul3 and dHP3-84 peptides was evaluated on Vero cells procured from the Asociación Banco Argentino de Células (ABAC; Buenos Aires, Argentina). Cell viability was determined using the Neutral Red Uptake test (NRU) test, following a previously described methodology. The Vero cells were cultured in Minimum Essential Medium (MEM) supplemented with 8% fetal calf serum (FCS), 50 μg/mL gentamicin, and 2 mM glutamine. The cells were monitored by observing their morphological changes after 24 and 48 h of incubation.
# For the NRU assay, the cells were seeded in 96-well culture plates at a density of 1 × 10^5 cells per well. The cell monolayers were treated with increasing concentrations of the peptide solutions (25–500 μg/mL) for 48 h in triplicate. The monolayers incubated with MM only were used as the control. Following exposure, the culture medium was replaced with 150 μL of a […] neutral red solution in MEM. After incubation at 37 °C for 3 h, the dye medium was discarded and the wells were gently washed with PBS. The intracellular dye was extracted using a mixture of acetic acid, ethanol, and water (1:50:49). After gentle agitation for 10 min, the absorbance values were measured at 540 nm.
# The relative cell viability was calculated as a percentage of the NRU observed in the untreated control groups. The cell survival fraction was determined using the following formula: (4) Survival Fraction % (SF%)=D.O. treated cells/D.O. control cells×100
# [2] = tested on: Staphylococcus aureus (ATCC 25923); format: cell-based
# Experimental: (§1) Hylin-Pul3 and six derivatives (dHP3-31, dHP3-50, dHP3-50.137, dHP3-50.190, dHP3-84, and dHP3-84.39) were tested against two Gram-positive bacteria, Staphylococcus aureus (ATCC 25923) and Streptococcus mutans (ATCC 25175), as well as three Gram-negative bacteria: Escherichia coli (ATCC 25922), Klebsiella pneumoniae (ATCC 13883), and Acinetobacter baumannii (ATCC 13304). The minimal inhibitory concentration (MIC) was determined using the microbroth dilution.
# (§2) The peptides were serially diluted in concentrations ranging 128 to 0.25 μM, with gentamicin serving as a positive control, which was serially diluted to concentrations of 20 to 0.04 μM. Bacterial cultures were prepared in Mueller–Hinton (MH) medium to achieve a final inoculum concentration of 5 × 10^5 CFU/mL. […] All tests were performed in duplicate and repeated across three independent experiments.
# [3] = tested on: Escherichia coli (ATCC 25922); format: cell-based; conditions: for Reduction in MIC against E. coli compared to hylin-Pul3: versus parent peptide hylin-Pul3
# Experimental: as §1, §2
# [4] = tested on: Klebsiella pneumoniae (ATCC 13883); format: cell-based
# Experimental: as §1, §2
# [5] = tested on: Acinetobacter baumannii (ATCC 13304); format: cell-based; conditions: for Reduction in MIC against A. baumannii compared to hylin-Pul3: versus parent peptide hylin-Pul3
# Experimental: as §1, §2
# [6] = tested on: Streptococcus mutans (ATCC 25175); format: cell-based
# Experimental: as §1, §2
# ABTS assay = conditions: peptides 0.05, 0.025, 0.0125 mg/mL, 1 h dark, absorbance 734 nm, triplicate
# Experimental: The 2,2-azinobis-3-ethylbenzothiazoline-6-sulfonic acid (ABTS^+) free radical-scavenging activity was determined following the method in [38]. The ABTS⁺ radical cation was generated by diluting a 245 mM ammonium persulfate (APS) solution at a ratio of 1:100 with a 7 mM ABTS solution, followed by overnight incubation in the dark at room temperature. The ABTS^+ solution was then diluted with water to obtain an absorbance of 0.70 at 734 nm immediately before the assay using a Shimadzu 1240 UV-visible spectrophotometer (Kyoto, Japan). The peptides were dissolved in PBS, and 10 µL aliquots of each peptide solution were incubated with 190 µL of the ABTS^+ solution in triplicate, at final concentrations of 0.05, 0.025, and 0.0125 mg/mL. After a 1 h incubation in the dark, the absorbance was measured at 734 nm. The radical-scavenging activity was quantified against a standard curve, with the results expressed as milligrams of Trolox equivalents per milligram of peptide.
# [7] = DPPH radical-scavenging activity; conditions: peptides 0.1, 0.05, 0.025 mg/mL, 30 min dark 25 °C, absorbance 515 nm, triplicate
# Experimental: A stock solution of 60 µM 1,1-diphenyl-2-picrylhydrazyl (DPPH) was prepared in ethanol, with its absorbance adjusted to 0.7 at 515 nm immediately before the assay using a Shimadzu 1240 UV–visible spectrophotometer (Kyoto, Japan). The peptides were dissolved in PBS, and 20 µL aliquots of each peptide solution were incubated with 180 µL of the ethanolic DPPH solution in triplicate, at final concentrations of 0.1, 0.05, and 0.025 mg/mL. For the negative control, 20 µL of PBS was mixed with 180 µL of the DPPH solution, while 20 µL of Trolox (6-hydroxy-2,5,7,8-tetramethylchroman-2-carboxylic acid) served as the positive control and standard. The mixtures were incubated in the dark at 25 °C for 30 min, after which, the absorbance was measured at 515 nm. The reduction in absorbance, indicative of DPPH-scavenging activity, was compared to a standard curve. The results were expressed as milligrams of Trolox equivalents per milligram of peptide (mg Trolox equivalents/mg of peptide).
# E. coli (ATCC 25922) = test: Synergistic checkerboard assay; format: cell-based, Escherichia coli
# Experimental: Briefly, working solutions of the peptides were prepared and serially diluted by half across the rows and columns of a microplate, ensuring that each well contained a unique combination of peptide concentrations. The starting concentrations corresponded to the respective MIC values of each peptide, followed by two-fold serial dilutions.
# Each well was filled with 50 µL of the peptide solution (individual or combined) and 50 µL of a bacterial suspension (1 × 10^6 CFU/mL), resulting in a final bacterial concentration of 5 × 10^5 CFU/mL. The individual peptide solutions served as positive controls, while the MH medium was employed as a negative control. The microplates were incubated at 37 °C overnight. The test was performed in three independent experiments. The fractional inhibitory concentrations index (ΣFIC) was calculated using the following equation: (1) ∑FIC =MIC(A) in combination/MIC(A) alone+MIC(B) in combination /MIC(B) alone
# The FIC index (ΣFIC) was interpreted as follows: ΣFIC ≤ 0.5 indicated synergy; 0.5 < ΣFIC ≤ 4 indicated no effect; and 4 < ΣFIC indicated antagonism.
substance,measurement,setting,value
"FLGALIPAIAGAIGGLIRK-NH2 [hylin-Pul3, reference compound]","Antiviral Activity, viral inhibition",[1],0%
same,"Cytotoxicity in Vero cells, MNCC",Vero cells,13.5 µM
same,"CC50, concentration inducing 50% cell death in Vero cells",Vero cells,80 µg/mL
same,"Cytotoxicity in Vero cells, CC50",Vero cells,43.2 µM
same,Antimicrobial Activity (MIC) S. aureus ATCC 25923,[2],7.3 ± 1.6 µM
same,Antimicrobial Activity (MIC) E. coli ATCC 25922,[3],32.0 ± 0.0 µM
same,Antimicrobial Activity (MIC) K. pneumoniae ATCC 13883,[4],>64 µM
same,Antimicrobial Activity (MIC) A. baumannii ATCC 13304,[5],32.0 ± 0.0 µM
same,Antimicrobial Activity (MIC) S. mutans ATCC 25175,[6],4.6 ± 1.6 µM
LWPAIRGAIKKLIKK-NH2 [dHP3-31],Antioxidant activity ABTS,ABTS assay,0.14 mg Trolox/mg
same,Antioxidant activity DPPH,[7],did not reveal significant activity
same,Antimicrobial Activity (MIC) S. aureus ATCC 25923,[2],37.3 ± 13.1 µM
same,Antimicrobial Activity (MIC) E. coli ATCC 25922,[3],16.0 ± 0.0 µM
same,Reduction in MIC against E. coli compared to hylin-Pul3,[3],4 fold
same,Antimicrobial Activity (MIC) K. pneumoniae ATCC 13883,[4],>64 µM
same,Antimicrobial Activity (MIC) A. baumannii ATCC 13304,[5],9.3 ± 3.2 µM
same,Reduction in MIC against A. baumannii compared to hylin-Pul3,[5],4 fold
same,Antimicrobial Activity (MIC) S. mutans ATCC 25175,[6],18.7 ± 6.5 µM
RLGALIPAIRGAIKKLIKK-NH2 [dHP3-50],Antimicrobial Activity (MIC) S. aureus ATCC 25923,[2],18.6 ± 6.5 µM
same,Antimicrobial Activity (MIC) E. coli ATCC 25922,[3],8.0 ± 0.0 µM
same,Reduction in MIC against E. coli compared to hylin-Pul3,[3],4 fold
same,Antimicrobial Activity (MIC) K. pneumoniae ATCC 13883,[4],64.0 ± 0.0 µM
same,Antimicrobial Activity (MIC) A. baumannii ATCC 13304,[5],6.6 ± 2 µM
same,Reduction in MIC against A. baumannii compared to hylin-Pul3,[5],4 fold
same,Antimicrobial Activity (MIC) S. mutans ATCC 25175,[6],8.0 ± 0.0 µM
RLGKLIPRIAKAIGRLIRK-OH [dHP3-84],"Antiviral Activity, viral inhibition",[1],70%
same,"Cytotoxicity in Vero cells, MNCC",Vero cells,57.6 µM
same,"CC50, concentration inducing 50% cell death in Vero cells",Vero cells,230 µg/mL
same,"Cytotoxicity in Vero cells, CC50",Vero cells,105.9 µM
same,"Synergistic Activity, FIC Index (ΣFIC)","E. coli (ATCC 25922); combination of dHP3-84 and dHP3-50.137, E. coli ATCC 25922, 5 × 10^5 CFU/mL, 37 °C overnight, three independent experiments, ΣFIC ≤ 0.5 = synergy",0.5
same,Improvement of combined activity compared to each peptide individually,"E. coli (ATCC 25922); dHP3-84 + dHP3-50.137, E. coli",2 fold
same,Antimicrobial Activity (MIC) S. aureus ATCC 25923,[2],9.3 ± 3.3 µM
same,Antimicrobial Activity (MIC) E. coli ATCC 25922,[3],8.0 ± 0.0 µM
same,Reduction in MIC against E. coli compared to hylin-Pul3,[3],4 fold
same,Antimicrobial Activity (MIC) K. pneumoniae ATCC 13883,[4],18.6 ± 6.5 µM
same,Lower MIC than the original peptide against K. pneumoniae,[4]; versus hylin-Pul3,4 fold
same,Antimicrobial Activity (MIC) A. baumannii ATCC 13304,[5],8.0 ± 0.0 µM
same,Reduction in MIC against A. baumannii compared to hylin-Pul3,[5],4 fold
same,Antimicrobial Activity (MIC) S. mutans ATCC 25175,[6],7.3 ± 1.6 µM
RRIALIPAIRGAIKKLIKK-NH2 [dHP3-50.190],Antimicrobial Activity (MIC) S. aureus ATCC 25923,[2],29.3 ± 6.5 µM
same,Antimicrobial Activity (MIC) E. coli ATCC 25922,[3],9.3 ± 3.2 µM
same,Antimicrobial Activity (MIC) K. pneumoniae ATCC 13883,[4],>64 µM
same,Antimicrobial Activity (MIC) A. baumannii ATCC 13304,[5],16.0 ± 0.0 µM
same,Antimicrobial Activity (MIC) S. mutans ATCC 25175,[6],32.0 ± 0.0 µM
